From PubChem BioAssay AID1963439 (Molecular Pharmacology Branch, DTP, NCI, 2024)

Test system: NCI-H196 complex spheroids with HUVEC/MSC, growth % T/C
Experiment: Anticancer human tumor NCI-H196 cell line growth inhibition [Asc];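 further: spheroids exposed to compound for 7 days before measurement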;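 on viability, T/C: 100% = DMSO vehicle control wells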
Settings: for IC50: curve of first compound; for viability, T/C: stronger effect = lower value
How it was run: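 Tumor cells were grown as complex spheroids with human endothelial cells (HUVEC) and human mesenchymal stem cells as stroma. Agents were tested alone and in combination, in half-log steps down from the clinical Cmax, or from 10 microM where Cmax was unknown.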

[1] = second compound 0.01 µM, first compound 0.0316 µM
[2] = second compound 0.01 µM, first compound 0.1 µM
[3] = second compound 0.01 µM, first compound 0.316 µM
[4] = second compound 0.01 µM, first compound 1 µM
[5] = second compound 0.01 µM, first compound 3.16 µM
[6] = second compound 0.01 µM, first compound 10 µM
[7] = second compound 0.0316 µM, first compound 0.0316 µM
[8] = second compound 0.0316 µM, first compound 0.1 µM
[9] = second compound 0.0316 µM, first compound 0.316 µM
[10] = second compound 0.0316 µM, first compound 1 µM
[11] = second compound 0.0316 µM, first compound 3.16 µM
[12] = second compound 0.0316 µM, first compound 10 µM
[13] = second compound 0.1 µM, first compound 0.0316 µM
[14] = second compound 0.1 µM, first compound 0.1 µM
[15] = second compound 0.1 µM, first compound 0.316 µM
[16] = second compound 0.1 µM, first compound 1 µM
[17] = second compound 0.1 µM, first compound 3.16 µM
[18] = second compound 0.1 µM, first compound 10 µM
[19] = second compound 0.316 µM, first compound 0.0316 µM
[20] = second compound 0.316 µM, first compound 0.1 µM
[21] = second compound 0.316 µM, first compound 0.316 µM
[22] = second compound 0.316 µM, first compound 1 µM
[23] = second compound 0.316 µM, first compound 3.16 µM
[24] = second compound 0.316 µM, first compound 10 µM
[25] = second compound 1 µM, first compound 0.0316 µM
[26] = second compound 1 µM, first compound 0.1 µM
[27] = second compound 1 µM, first compound 0.316 µM
[28] = second compound 1 µM, first compound 1 µM
[29] = second compound 1 µM, first compound 3.16 µM
[30] = second compound 1 µM, first compound 10 µM

`C#Cc1c(F)ccc2cc(O)cc(-c3ncc4c(N5CC6CCC(C5)N6)nc(OCC56CCCN5CC(F)C6)nc4c3F)c12` (stereo not given) + CNC(C)C(=O)NC1CN(S(=O)(=O)c2cccc(S(=O)(=O)N3CCC4CCC(C(=O)NC(c5ccccc5)c5ccccc5)N4C(=O)C(NC(=O)C(C)NC)C3)c2)CCC2CCC(C(=O)NC(c3ccccc3)c3ccccc3)N2C1=O showed an IC50 (second compound 0.01 µM) of less than 31.6 nM, an IC50 (second compound 0.0316 µM) of less than 31.6 nM and an IC50 (second compound 0.1 µM) of less than 31.6 nM. It also gave an IC50 (second compound 0.316 µM) of less than 31.6 nM, an IC50 (second compound 1 µM) of less than 31.6 nM and a viability, T/C [1] of 8.46%. The viability, T/C [2] was 8.46%, the viability, T/C [3] was 4.34% and the viability, T/C [4] was 5.01%. For the same compound, the viability, T/C [5] was 4.3%, the viability, T/C [6] was 1.48% and the viability, T/C [7] was 5.72%. The viability, T/C [8] was 5.7%, the viability, T/C [9] was 4.82% and the viability, T/C [10] was 3.76%. It also gave a viability, T/C [11] of 4.16%, a viability, T/C [12] of 0.96% and a viability, T/C [13] of 4.46%. It also gave a viability, T/C [14] of 3.83%, a viability, T/C [15] of 4.97% and a viability, T/C [16] of 3.85%. For the same compound, the viability, T/C [17] was 3.73%, the viability, T/C [18] was 0.77% and the viability, T/C [19] was 2.58%. For the same compound, the viability, T/C [20] was 2.92%, the viability, T/C [21] was 3.31% and the viability, T/C [22] was 3.63%. The viability, T/C [23] was 2.24%, the viability, T/C [24] was 1.04% and the viability, T/C [25] was 3.75%. The viability, T/C [26] was 2.83%, the viability, T/C [27] was 3.86% and the viability, T/C [28] was 2.71%. For the same compound, the viability, T/C [29] was 2.69% and the viability, T/C [30] was 1.34%.
`C=C(F)C(=O)N1CCN(c2nc(OCC3CCCN3C)nc3c2CCN(c2cccc4cccc(Cl)c24)C3)CC1CC#N` (stereo not given) + CNC(C)C(=O)NC1CN(S(=O)(=O)c2cccc(S(=O)(=O)N3CCC4CCC(C(=O)NC(c5ccccc5)c5ccccc5)N4C(=O)C(NC(=O)C(C)NC)C3)c2)CCC2CCC(C(=O)NC(c3ccccc3)c3ccccc3)N2C1=O showed an IC50 (second compound 0.01 µM) of less than 31.6 nM, an IC50 (second compound 0.0316 µM) of less than 31.6 nM and an IC50 (second compound 0.1 µM) of less than 31.6 nM. The IC50 (second compound 0.316 µM) was less than 31.6 nM, the IC50 (second compound 1 µM) was less than 31.6 nM and the viability, T/C [1] was 7.36%. For the same compound, the viability, T/C [2] was 8.05%, the viability, T/C [3] was 5.8% and the viability, T/C [4] was 3.58%. The viability, T/C [5] was 0.83%, the viability, T/C [6] was 0.19% and the viability, T/C [7] was 3.17%. For the same compound, the viability, T/C [8] was 4.55%, the viability, T/C [9] was 4.1% and the viability, T/C [10] was 3.88%. For the same compound, the viability, T/C [11] was 0.38%, the viability, T/C [12] was 0.16% and the viability, T/C [13] was 4.2%. For the same compound, the viability, T/C [14] was 5.22%, the viability, T/C [15] was 5.23% and the viability, T/C [16] was 3.23%. For the same compound, the viability, T/C [17] was 0.27%, the viability, T/C [18] was 0.18% and the viability, T/C [19] was 4.24%. It also gave a viability, T/C [20] of 3.28%, a viability, T/C [21] of 1.71% and a viability, T/C [22] of 2.27%. For the same compound, the viability, T/C [23] was 2.27%, the viability, T/C [24] was 0.18% and the viability, T/C [25] was 3.34%. The viability, T/C [26] was 3.4%, the viability, T/C [27] was 2.52% and the viability, T/C [28] was 1.53%. For the same compound, the viability, T/C [29] was 0.35% and the viability, T/C [30] was 0.24%.
With `C=CC(=O)N1CCN(c2nc(=O)n(-c3c(C)ccnc3C(C)C)c3nc(-c4c(O)cccc4F)c(F)cc23)C(C)C1` (stereo not given) + CNC(C)C(=O)NC1CN(S(=O)(=O)c2cccc(S(=O)(=O)N3CCC4CCC(C(=O)NC(c5ccccc5)c5ccccc5)N4C(=O)C(NC(=O)C(C)NC)C3)c2)CCC2CCC(C(=O)NC(c3ccccc3)c3ccccc3)N2C1=O the IC50 (second compound 0.01 µM) was less than 31.6 nM, the IC50 (second compound 0.0316 µM) was less than 31.6 nM and the IC50 (second compound 0.1 µM) was less than 31.6 nM. For the same compound, the IC50 (second compound 0.316 µM) was less than 31.6 nM, the IC50 (second compound 1 µM) was less than 31.6 nM and the viability, T/C [1] was 8.2%. The viability, T/C [2] was 7.68%, the viability, T/C [3] was 5.38% and the viability, T/C [4] was 6.44%. The viability, T/C [5] was 8.71%, the viability, T/C [6] was 9.87% and the viability, T/C [7] was 3.84%. It also gave a viability, T/C [8] of 5.12%, a viability, T/C [9] of 5.38% and a viability, T/C [10] of 8.69%. The viability, T/C [11] was 6.93%, the viability, T/C [12] was 7.56% and the viability, T/C [13] was 3.27%. It also gave a viability, T/C [14] of 3.83%, a viability, T/C [15] of 3.69% and a viability, T/C [16] of 4.2%. For the same compound, the viability, T/C [17] was 7.47%, the viability, T/C [18] was 9.85% and the viability, T/C [19] was 3.58%. The viability, T/C [20] was 3.64%, the viability, T/C [21] was 6.15% and the viability, T/C [22] was 3.67%. For the same compound, the viability, T/C [23] was 4.47%, the viability, T/C [24] was 6.52% and the viability, T/C [25] was 3.22%. It also gave a viability, T/C [26] of 3.89%, a viability, T/C [27] of 3.25% and a viability, T/C [28] of 3.51%. For the same compound, the viability, T/C [29] was 5.33% and the viability, T/C [30] was 9.94%.
`CCN1C(C(=O)NC23CCC(C(=O)O)(CC2)CC3)C(c2cccc(Cl)c2F)C2(C(=O)Nc3cc(Cl)ccc32)C12CCCCC2` (stereo not given) + CNC(C)C(=O)NC1CN(S(=O)(=O)c2cccc(S(=O)(=O)N3CCC4CCC(C(=O)NC(c5ccccc5)c5ccccc5)N4C(=O)C(NC(=O)C(C)NC)C3)c2)CCC2CCC(C(=O)NC(c3ccccc3)c3ccccc3)N2C1=O was tested, and the IC50 (second compound 0.01 µM) was less than 9.49 nM, the IC50 (second compound 0.0316 µM) was less than 9.49 nM and the IC50 (second compound 0.1 µM) was less than 9.49 nM. It also gave an IC50 (second compound 0.316 µM) of less than 9.49 nM, an IC50 (second compound 1 µM) of less than 9.49 nM and a viability, T/C (second compound 0.01 µM, first compound 0.00949 µM) of 6.77%. The viability, T/C (second compound 0.01 µM, first compound 0.03 µM) was 8.8%, the viability, T/C (second compound 0.01 µM, first compound 0.0949 µM) was 6.77% and the viability, T/C (second compound 0.01 µM, first compound 0.3 µM) was 4.95%. The viability, T/C (second compound 0.01 µM, first compound 0.949 µM) was 4.31%, the viability, T/C (second compound 0.01 µM, first compound 3 µM) was 2.99% and the viability, T/C (second compound 0.0316 µM, first compound 0.00949 µM) was 4.48%. For the same compound, the viability, T/C (second compound 0.0316 µM, first compound 0.03 µM) was 6.6%, the viability, T/C (second compound 0.0316 µM, first compound 0.0949 µM) was 5.08% and the viability, T/C (second compound 0.0316 µM, first compound 0.3 µM) was 5.41%. For the same compound, the viability, T/C (second compound 0.0316 µM, first compound 0.949 µM) was 2.77%, the viability, T/C (second compound 0.0316 µM, first compound 3 µM) was 1.77% and the viability, T/C (second compound 0.1 µM, first compound 0.00949 µM) was 3.71%. For the same compound, the viability, T/C (second compound 0.1 µM, first compound 0.03 µM) was 4.01%, the viability, T/C (second compound 0.1 µM, first compound 0.0949 µM) was 3.17% and the viability, T/C (second compound 0.1 µM, first compound 0.3 µM) was 3.11%. The viability, T/C (second compound 0.1 µM, first compound 0.949 µM) was 1.37%, the viability, T/C (second compound 0.1 µM, first compound 3 µM) was 2.04% and the viability, T/C (second compound 0.316 µM, first compound 0.00949 µM) was 2.48%. For the same compound, the viability, T/C (second compound 0.316 µM, first compound 0.03 µM) was 4.45%, the viability, T/C (second compound 0.316 µM, first compound 0.0949 µM) was 3.05% and the viability, T/C (second compound 0.316 µM, first compound 0.3 µM) was 1.97%. For the same compound, the viability, T/C (second compound 0.316 µM, first compound 0.949 µM) was 0.96%, the viability, T/C (second compound 0.316 µM, first compound 3 µM) was 1.45% and the viability, T/C (second compound 1 µM, first compound 0.00949 µM) was 2.97%. It also gave a viability, T/C (second compound 1 µM, first compound 0.03 µM) of 4.34%, a viability, T/C (second compound 1 µM, first compound 0.0949 µM) of 2.12% and a viability, T/C (second compound 1 µM, first compound 0.3 µM) of 1.73%. The viability, T/C (second compound 1 µM, first compound 0.949 µM) was 1.39% and the viability, T/C (second compound 1 µM, first compound 3 µM) was 1.39%.
